In article PMC11766601, “A Comparative Study of the In Vitro Intestinal Permeability of Pinnatoxins and Portimine” (Marine Drugs, 2025):
Marks after values point to notes of the source that are not given here.

What was measured:
[1] = tested on: Caco-2 cells; test: Trans-epithelial electrical resistance (TEER) of differentiated Caco-2 monolayers; assay type: cell-based, human; details: 24 h
Procedure: (§1) All experiments were performed with human intestinal Caco-2 cells (ATCC-HTB37), acquired from the American Type Culture Collection (ATCC; Manassas, VA, USA). Caco-2 cells originate from a colorectal adenocarcinoma, but upon reaching confluence, they differentiate and express the characteristics of enterocytes. The cells were cultivated in minimum essential medium containing 5.5 mM D-glucose, Earle’s salts, and 2 mM L-alanyl-glutamine (MEM GlutaMAX™, Gibco, Bromont, QC, Canada) supplemented with 10% fetal bovine serum (FBS, Gibco), 1% non-essential amino acids, 50 U/mL penicillin, and 50 μg/mL streptomycin (Gibco) under humidified conditions (37 °C, 5% CO2, 95% humidity). The cells were grown for 3–4 days up to 80% confluence before trypsinization and sub-culture. For the experiments, the cells were seeded in TRANSWELL® plates (12 wells, 0.4 µm pore size; Costar®, Corning Incorporated, Corning, NY, USA) at a density of 90,000 cells/cm^2. Prior to toxin treatment, highly differentiated Caco-2 cells were obtained after 24–26 days of culture, with medium renewal every 2–3 days. Passage numbers between 30 and 40 were used for experiments.
(§2) PnTX-A, PnTX-G, PnTX-E, PnTX-H, and portimine stock solutions were prepared in methanol, while PnTX-F was provided in acetonitrile/acetic acid (50%/0.1%). For each toxin, the cells were incubated at 8, 16, and 32 ng/mL (diluted in HBSS) for 2 h, 6 h, and 24 h, with a final volume of 1.5% solvent. The controls were incubated with the cell culture medium containing the respective solvent of the toxin at 1.5%. Each experiment included three biological replicates. Two to three independent experiments were conducted.
Epithelial integrity was examined by measuring the TEER between the apical and basolateral compartments. After rinsing with a HBSS solution (HBSS, HEPES 5 mM, pH 7.4), the Caco-2 monolayers were equilibrated for 30 min at 37 °C with 300 and 1000 µL HBSS in the apical (A) and basolateral (B) chambers, respectively. Then, the content of the apical compartment was replaced with 500 µL HBSS-containing toxins. TEER was quantified with a Millipore Millicell Electrical Resistance System (ERS Millipore, EMD Millipore Corporation, Burlington, MA, USA). The mean value of two measurements per well before and after the treatment was calculated and multiplied by the surface of the insert to obtain Ω × cm^2. After blank subtraction, the results were presented as a percentage of the solvent control.

[2] = tested on: Caco-2 cell monolayers; test: Lucifer Yellow paracellular permeability (barrier integrity); assay type: cell-based, human; details: 24 h
Procedure: as §1, §2
For the assay, both compartments of the insert system were washed with Hank’s balanced salt solution (HBSS). Then, 0.5 mL of 0.1 mg/mL Lucifer Yellow in HBSS buffer and 1 mL of pure HBSS buffer were added to the apical and basolateral compartments, respectively. After a 2 h incubation at 37 °C, the media of the basolateral compartments were collected and the fluorescence of each compartment was measured in triplicate (excitation: 405 nm, emission: 520 nm) with a FLUOstar Optima microplate reader (BMG Labtech, Ortenberg, Germany). After subtraction of the blank (HBSS), the permeability of the […] was calculated against the value obtained for pure LY and reported as % permeability.

[3] = Toxin crossing and apparent permeability across Caco-2 cell monolayers (A to B), LC-MS/MS; assay type: in vitro ADME, human; details: human, Caco-2; for Papp at 2 h, 8 ng/mL / Papp at 6 h, 8 ng/mL: loaded 8 ng/mL; for Papp at 2 h, 8 ng/mL / Papp at 2 h, 16 ng/mL / Papp at 2 h, 32 ng/mL / Papp at 6 h, 8 ng/mL / Papp at 6 h, 16 ng/mL / Papp at 6 h, 32 ng/mL: A to B; for Papp at 2 h, 16 ng/mL / Papp at 6 h, 16 ng/mL: loaded 16 ng/mL; for Papp at 2 h, 32 ng/mL / Papp at 6 h, 32 ng/mL: loaded 32 ng/mL
Procedure: as §1, §2
(§3) The apical and basolateral compartments were collected after 2, 6, and 24 h treatment time. Parts of the solutions that were used to load the apical compartments were also stored (T0) to take into account the real concentration and not the estimated concentration. All the samples were stored at −20 °C until LC/MS analysis.
(§4) The LC-MS/MS analysis of toxins was implemented for the quantitative analysis of toxins. The LC system was an Agilent 1200 (Agilent Technologies, Santa Clara, CA, USA). The chromatographic separation was performed using a column Hypersil GOLD® C18 50 mm × 2.1 mm, 1.9 μm (Thermo Scientific, Waltham, MA, USA). Eluent A consisted of water, and eluent B of acetonitrile/water at a ratio of 95:5 (v/v), with both eluents containing 50 mM formic acid and 2 mM ammonium formate. The LC flow rate was 0.4 mL/min, and the gradient was programmed as follows: 10% B held for 0.5 min, 10–90% B in 5 min, 90% B held for 1 min, 90–10% B in 0.5 min, and 10% B held for 3.0 min, for a total run time of 10 min. The injection volume was 5 μL, while the column temperature was maintained at 40 °C. The column effluent was transferred via a divert valve (Valco Instruments Co., Inc., Houston, TX, USA), either to the mass spectrometer (between 1.7 and 5.5 min) or to waste.
(§5) The detection system was constructed with an API 4000 triple quadrupole mass spectrometer (Sciex, Framingham, MA, USA) equipped with an ElectroSpray Ionization (ESI) source (Turbo V). The mass spectrometer was operated in positive ESI mode. The source temperature was set at 600 °C, and the spray voltage was 5500 V. Air was used as a nebulizer gas and an auxiliary gas, with a gas pressure of 40 and 60 psi, respectively. Meanwhile, the curtain gas and collision gas were nitrogen, with a gas pressure of 15 and 8 psi, respectively. The mass spectrometer was operated in multiple reaction monitoring mode (MRM). One transition was used for quantification (Q) and another as a qualifier transition (q). A mass resolution of 0.7 Da full width at half maximum (FWHD) was set on the first (Q1) and the third (Q3) quadrupoles. Instrument control and data were handled with Analyst software version 1.5.1 (Sciex, Framingham, MA, USA).
(§6) The portimine and PnTX retention times varied between 2.7 and 4.4 min (Figure S1). […]

[4] = tested on: Caco-2 cell monolayers; test: as above; assay type: in vitro ADME, human; details: for % theoretical amount of toxin crossing the Caco-2 cell monolayers: relative to theoretical loaded concentration; for Percentage of toxin crossing the Caco-2 cell monolayers: A to B, relative to quantified T0; for permeability / oral bioavailability class from Caco-2 Papp: threshold Papp > 1.5 × 10^−6 cm·s^−1 = highly penetrative
Procedure: as §1, §2, §3, §4, §5, §6

[5] = tested on: mice; details: mice, oral exposure; cited from earlier work

| SMILES | Papp at 2 h, 8 ng/mL [3] [×10⁻⁶ cm/s] | Papp at 2 h, 16 ng/mL [3] [×10⁻⁶ cm/s] | Papp at 2 h, 32 ng/mL [3] [×10⁻⁶ cm/s] | Papp at 6 h, 8 ng/mL [3] [×10⁻⁶ cm/s] | Papp at 6 h, 16 ng/mL [3] [×10⁻⁶ cm/s] | Papp at 6 h, 32 ng/mL [3] [×10⁻⁶ cm/s] | % theoretical amount of toxin crossing the Caco-2 cell monolayers ([4]; 2 h, 8 ng/mL) [%] | % theoretical amount of toxin crossing the Caco-2 cell monolayers ([4]; 2 h, 16 ng/mL) [%] | % theoretical amount of toxin crossing the Caco-2 cell monolayers ([4]; 2 h, 32 ng/mL) [%] | Percentage of toxin crossing the Caco-2 cell monolayers ([4]; 2 h, loaded 8 ng/mL) | Percentage of toxin crossing the Caco-2 cell monolayers ([4]; 2 h, loaded 16 ng/mL) [%] | Percentage of toxin crossing the Caco-2 cell monolayers ([4]; 2 h, loaded 32 ng/mL) [%] | % theoretical amount of toxin crossing the Caco-2 cell monolayers ([4]; 6 h, 8 ng/mL) [%] | % theoretical amount of toxin crossing the Caco-2 cell monolayers ([4]; 6 h, 16 ng/mL) [%] | % theoretical amount of toxin crossing the Caco-2 cell monolayers ([4]; 6 h, 32 ng/mL) [%] | Percentage of toxin crossing the Caco-2 cell monolayers ([4]; 6 h, loaded 8 ng/mL) [%] | Percentage of toxin crossing the Caco-2 cell monolayers ([4]; 6 h, loaded 16 ng/mL) [%] | Percentage of toxin crossing the Caco-2 cell monolayers ([4]; 6 h, loaded 32 ng/mL) [%] | permeability / oral bioavailability class from Caco-2 Papp [4] | other results |
| --- | --- | --- | --- | --- | --- | --- | --- | --- | --- | --- | --- | --- | --- | --- | --- | --- | --- | --- | --- | --- |
| C=C1CCCC2=NCC(C)C(C)CC23CCC(C(O)CCC(=O)O)=CC3C2OC3(CC(C)CC2O3)CC2OC3(CCC4(OC(CCC4(C)O)C1)O3)CC(C)C2O (stereo not drawn) [PnTX-E] | 3.75 | 1.5 ± 0.4 | 1.81 ± 0.28 | 2.04 ± 0.4 | 1.49 ± 0.65 | 2.38 ± 0.71 | 5.25 | 2.12 ± 0.71 | 2.47 ± 0.31 | 6.05 * % | 2.41 ± 0.65 | 2.92 ± 0.45 | 2.87 ± 0.53 | 2.12 ± 1.06 | 3.25 ± 0.88 | 3.29 ± 0.64 | 2.40 ± 1.06 | 3.85 ± 1.15 | poor permeability | effect on TEER ([1]; 16 and 32 ng/mL): slight, but non-significant, decrease; effect on LY permeability ([2]; all concentrations (8, 16, 32 ng/mL)): significant increase; Papp ([3]; 2 and 6 h, 8-32 ng/mL, read-out: Papp, range of means): 1.49 to 3.75 ×10⁻⁶ cm/s; decrease of toxin amount in the apical compartment ([4]; 2 h, all the tested concentrations): approximately 15%; toxin amount in the apical compartment ([4]; 6 h): approximately 100 % of the loaded amount; amount of toxin crossing the intestinal barrier in vitro ([4]; regardless of the concentration loaded, 2 and 6 h): < 4%; macroscopic lesions on the intestine, other organs and tissues [5]: no macroscopic lesions |
| C=CC1=CC2C3OC4(CC(C)CC3O4)CC3OC4(CCC5(OC(CCC5(C)O)CC(=C)CCCC5=NCC(C)C(C)CC52CC1)O4)CC(C)C3O (stereo not drawn) [PnTX-H, Pinnatoxin H] | 19.5 ± 3.14 | 13.7 ± 4.83 | 18 ± 2.19 | 36 ± 5.4 | 30.3 ± 6.69 | 33.6 ± 2.43 | 3.96 ± 0.19 | 3.21±0.94 | 4.32 ± 1.10 | 31.52 ± 5.07% | 22.05 ± 7.80 | 29.07 ± 3.54 | 7.37 ± 1.42 | 7.10 ± 0.79 | 8.04 ± 1.80 | 58.06 ± 8.71 | 48.83 ± 11.22 | 54.22 ± 3.91 | high oral bioavailability | effect on TEER ([1]; 32 ng/mL): slight, but non-significant, decrease; effect on passage of LY [2]: lower effect; effect on LY permeability ([2]; 32 ng/mL only): significant increase |
